Experimental data published in EP2999467B1, “USE OF A COMBINATION OF TWO COMPOUNDS FOR THE TREATMENT AND/OR PREVENTION OF BONE DISORDERS” (Institut National de la Recherche Agronomique (INRA), priority 2013, dated 2014).
Where two headings read alike, the source gives them in different places.

Experiments:
[1] = test system: perte osseuse induite par ovariectomie; test: Ovariectomy-induced bone loss: bone micro-architecture (micro-CT); assay type: in vivo, souris C57BL/6J
Experimental: (§1) Tout au long de l'étude, les animaux ont été logés dans un environnement contrôlé (12:12 h cycle lumière-obscurité, 20-22 ° C, 50-60% d'humidité relative, 1 souris par cage en plastique avec un accès libre à l'eau. Les souris C57BL/6J ont été livrées 2 semaines avant l'étude pour l'acclimatation à notre environnement sous régime standard semi-purifié. Pour toutes les expériences, les souris de 8 semaines (n=12/groupe) ont été gavées avec le véhicule (1% d'éthanol, 0,2% hydroxypropylcellulose dans de l'eau distillée) ou avec la fisétine (5 à 50 mg/kg dans le véhicule) pendant une semaine. Ensuite, pour l'expérience OVX, les souris ont été pseudo-opérées ou ovariectomisées bilatéralement et ont reçu quotidiennement par gavage le véhicule ou la fisétine pendant 4 semaines. A la fin de l'expérimentation, le sérum, les cornes utérines, les tibias et les fémurs ont été recueillis pour analyse. Pour l'expérience de perte osseuse induite par LPS, le véhicule (PBS) ou le LPS (sérotype 026: B6, 25mg/kg) ont été injectés par voie sous-cutanée au niveau de la calotte crânienne, une fois par semaine pendant 3 semaines sous anesthésie. Durant ces 3 semaines, les souris ont reçu soit le véhicule (1% d'éthanol, 0,2% hydroxypropylcellulose dans de l'eau distillée) soit la fisétine quotidiennement par gavage. A la fin de l'expérimentation, le sérum, les tibias et les fémurs ont été recueillis pour analyse. Des expériences similaires ont été conduites et arrêtés 24 heures après la première injection de LPS et les fémurs ont été prélevés pour extraction des ARNs et l'analyse en qRT-PCR.
Pour effectuer une mesure, l'échantillon a été monté sur un plateau tournant pouvant être déplacé automatiquement dans le sens axial (pas angulaire: 0,675°/reconstruction plage angulaire: 186.30°). Un filtre en aluminium (0,5 mm d'épaisseur) a été placé entre la source de rayons X et l'échantillon. La micro-architecture (spongieuse secondaire) a été analysée en utilisant le rayonnement X micro-CT SkyScan 1072 (BRUKER-microCT, Kontich, Belgique). Des photos de 1024 * 1024 pixels ont été obtenues en utilisant les paramètres 37kV et 215µA. Selon les paramètres de la caméra, les pixels mesurent 5.664µm menant à un voxel de 1.817 * 10-7mm^3. Le calcul des paramètres histomorphométriques a été réalisé en utilisant les logiciels ctan ® et Nrecon ® (version 1.11. Et 1.6.1.7 respectivement).

ostéocalcine = test: Quantitative RT-PCR, osteoblast differentiation marker: osteocalcin; assay type: cell-based, rats Wistar; settings: Rattus norvegicus; for activation at 5 µM: AA+βGP+Fisétine 5µM
Source text: Les préostéoblastes primaires ont été isolés à partir de la calotte crânienne de rats Wistar nouveaux-nés par digestion enzymatique comme précédemment décrit [Declercq, H., Van den Vreken, N., De Maeyer, E., Verbeeck, R., Schacht, E., De Ridder, L., and Cornelissen, M. (2004). Isolation, proliferation and differentiation of osteoblastic cells to study cell/biomaterial interactions: comparison of different isolation techniques and source. Biomaterials 25, 757-68.]. Les précurseurs d'ostéoclastes RAW264.7 ont été obtenus auprès de l'ATCC (Manassas, VA, USA). Les préostéoblastes et les RAW264.7 ont été cultivés dans du milieu α-MEM (Invitrogen, Carlsbad, CA, USA) supplémenté avec 10% de SVF décomplémenté et de 100 unités/ml de pénicilline-streptomycine.
L'extraction des ARN totaux (cellules et fémurs) a été effectuée en utilisant le réactif TRIzol, la transcription inverse (RT) a été réalisée à l'aide du kit de synthèse d'ADNc Dynamo (Thermo Scientific, Waltham, MA, USA) et l'analyse PCR en temps réel a été réalisée avec le Mastercycler ep Realplex2 (Eppendorf, Hambourg, Allemagne). Toutes les valeurs ont été normalisées par la GAPDH. Les séquences des oligos utilisés sont : ALP F 5'-GGCCAGCTACACCACAACA-3' / ALP R 5'-[…] -3' / OCN F 5'-AGACTCCGGCGCTACCTT -3' / OCN R 5'-[…]-3'/ COL1 F 5'-[…]-3' / COL1 R 5'-[…]-3' / GAPDH F 5'-[…]-3' / GAPDH R 5'-[…]-3'

[2] = test system: perte osseuse induite par ovariectomie; test: Ovariectomy-induced bone loss: trabecular bone mineral density of femur (CT); assay type: in vivo, souris C57BL/6J; settings: OVX mice, Fisétine 25mg/kg daily by gavage; OVX without fisetin -15%
Experimental: as §1, with “A la fin de l'expérimentation, le sérum, les tibias et les fémurs ont été recueillis pour analyse. Des expériences similaires ont été conduites et arrêtés 24 heures après la première injection de LPS et les fémurs ont été prélevés pour extraction des ARNs et l'analyse en qRT-PCR.” left out

O=c1c(O)c(-c2ccc(O)c(O)c2)oc2cc(O)ccc12 [Fisétine, 3,3',4',7-tétrahydroxyflavone]
augmentation de l'épaisseur des trabécules par rapport aux animaux OVX ([1]; OVX + Fisétine 25 mg/kg): 3,55%
augmentation du nombre de trabécules par rapport aux animaux OVX ([1]; OVX + Fisétine 25 mg/kg): 16,31%
augmentation du volume osseux/volume total par rapport aux animaux OVX ([1]; OVX + Fisétine 25 mg/kg): 20,37%
Nombre de trabécules ([1]; OVX + Fisétine 25mg/kg, OVX 1.90 ± 0.22): 2.21 ± 0.12 mm^-1
Volume osseux/Volume total ([1]; OVX + Fisétine 25mg/kg, OVX 13.40 ± 1.74): 16.13 ± 0.96%
Epaisseur des trabécules ([1]; OVX + Fisétine 25mg/kg, OVX 70.35 ± 1.295): 72.85 ± 1.563 µm
Espace inter-trabéculaire ([1]; OVX + Fisétine 25mg/kg, OVX 285.68 ± 54,69): 265.50 ± 29.41 µm
activation at 1 µM (ostéocalcine; 168 h, AA+βGP+Fisétine 1 µM, J7, read-out: expression de l'ostéocalcine par rapport à la condition « AA+βGP seuls »): 63%
activation at 5 µM (ostéocalcine; 168 h, J7, read-out: expression de l'ostéocalcine par rapport à la condition « AA+βGP seuls »): 177%
activation at 1 µM (ostéocalcine; 336 h, AA+βGP+Fisétine 1µM, J14, read-out: expression de l'ostéocalcine par rapport à la condition « AA+βGP seuls »): 63%
activation at 5 µM (ostéocalcine; 336 h, J14, read-out: expression de l'ostéocalcine par rapport à la condition « AA+βGP seuls »): 131%
densité minérale osseuse (DMO trabéculaire) par rapport à la condition témoin « SH » [2]: -4%
